The values below come from US20260091136A1, “USING ENHO GENE THERAPY TO TREAT CARDIOMETABOLIC DISEASE” (University of Pittsburgh-of the Commonwealth System of …, priority 2023, published 2026).

Data set [1] concerns HFpEF mice. As to the kind of experiment: Intraperitoneal glucose tolerance test (IPGTT), cohort 2. In kind it is in vivo, C57BL/6J mice. An excerpt: Twelve week-old C57BL/6J wild-type male mice were exposed to normal chow, or a combination of 60% high fat diet plus N^ω-nitro-L-arginine methyl ester (L-NAME: 0.5 g/L in drinking water) to induce HFpEF. After 8 weeks of diet, mice were randomly assigned to a control HFpEF group, or to a group receiving daily intraperitoneal injections of recombinant Adropin (450 nmol/kg) for the remaining weeks of the study. All animal experiments were approved by the University of Pittsburgh Institutional Animal Care and Use Committee. […] These changes occurred in the absence of systolic dysfunction (FIG. 6). Each marker of cardiac dysfunction was absent in HFpEF mice treated with Adropin (FIG. 6).
Animal Care and Use. Male C57BL/6J 8-week-old mice were obtained from the Jackson Laboratory and maintained on chow for 4 weeks to acclimate to their new environment. Animals were housed in the University of Pittsburgh animal facility under standard conditions with ad libitum access to water and food and maintained on a constant 12-hour light/dark cycle. […]
Intraperitoneal Glucose Tolerance Test (IPGTT). […] Blood glucose was measured by tail bleed at set time points using a Bayer Contour Next EZ handheld glucometer (t=15, 30, 45, 60, and 120 min).

Data set [2] has as its system HFpEF mice. As to the kind of experiment: Heart weight and heart histology (Masson's trichrome, WGA), cohort 2. In kind it is in vivo, C57BL/6J mice. Particulars: for cardiac fibrosis / cardiomyocyte hypertrophy: HFpEF mice following Adropin treatment, histology. An excerpt: (§1) Animal Care and Use. Male C57BL/6J 8-week-old mice were obtained from the Jackson Laboratory and maintained on chow for 4 weeks to acclimate to their new environment. Animals were housed in the University of Pittsburgh animal facility under standard conditions with ad libitum access to water and food and maintained on a constant 12-hour light/dark cycle. At 12 weeks of age, the mice were exposed to normal chow (Chow; 60% carbohydrate, 26% protein, 14% fat), or a combination of high-fat diet (HFD; 20% carbohydrate, 20% protein, 60% fat) plus No-nitro-L-arginine methyl ester (L-NAME: 0.5 g/L) supplemented in their drinking water after adjusting the pH to 7.4 with 1N NaOH to induce HFpEF [10]. For cohort 1, the mice were subject to the HFpEF diet for 15 weeks. For cohort 2, after 8 weeks of diet, mice were randomly assigned to a control or treatment group receiving daily intraperitoneal injections of either vehicle or recombinant adropin at 450 nmol/kg animal weight prepared in PBS with 0.1% BSA for the remaining 5 weeks of the study. L-NAME supplemented drinking water was changed weekly and adropin was made fresh and sterile filtered before each use.
Histology. Preparation and staining of all histological samples were conducted by the Pitt Biospecimen Core at the University of Pittsburgh. All mice were sacrificed, and tissue harvested for analysis within one hour of completion of the IPGTT study. The apex of the heart and right (cohort 1) or left (cohort 2) lobe of the liver was excised from each mouse following euthanasia, fixed in 10% buffered formalin phosphate overnight at shaking incubation, washed 3 times for 5 min with 1× phosphate-buffered saline (PBS), and then transferred to 70% ethanol. Samples were then embedded in paraffin, sectioned into 4 μm slides and stained with hematoxylin and eosin (H&E), wheat germ agglutinin (WGA) or Masson's Trichrome for analysis. The NAFLD/MAFLD activity score (NAS) was obtained based on methods established by the Pathology Committee of the Non-alcoholic Steatohepatitis (NASH) Clinical Research Network. Liver pathology scoring was performed in a blinded independent fashion. NAS consisted of separate category scores which included steatosis (0-3), where 0=0-5%, 1=6-33%, 2=34-66%, and 3=67-100% of hepatocytes positive for steatosis; lobular inflammation (0-3), where 0=no foci, 1=[…], 2=2-4 foci and 3=greater than 4 foci all per 200× field; and hepatocellular ballooning (0-2), where 0=none present, 1=few and 2=many/prominent. The final NAS represents a sum of the three category scores. Histology sections were visualized with the Evos FL Auto 2 Microscope, observed changes in structure were quantified using ImageJ software and representative images are shown.

For data set [3], the system named is hexosamine biosynthesis pathway (HBP). As to the kind of experiment: Immunoblotting of cardiac proteins (O-GlcNAc, GFAT, OGT, OGA, CD36, PDK4, PLIN5). Particulars: heart; for CD36 abundance: to levels observed in chow mice; for total cardiac protein O-GlcNAcylation: to levels observed in chow mice (P=0.06 in b192). In kind it is in vivo, C57BL/6J mice.
Text: as §1
Protein Isolation and Immunoblotting. Heart tissues were rapidly harvested following euthanasia, weighed, RV discarded and LV flash-frozen in liquid nitrogen. For protein isolation, tissues were minced and lysed in CHAPS buffer (1% CHAPS, 150 mM NaCl, 10 mM HEPES, pH 7.4) using a VWR 4-Place Mini Bead Mill, then incubated on ice for ˜2.5 h. Homogenates were spun at 10,000 g at 4° C. for 10 min, and the supernatants collected for immunoblotting. For immunoblotting, protein lysates were quantitated using a BioDrop LITE Analyzer, prepared in LDS sample buffer, separated using Bolt SDS-PAGE 4-12% or 12% Bis-Tris Plus gels, and transferred to nitrocellulose membranes. Membranes were blocked using SuperBlock (PBS) Blocking Buffer and incubated overnight in the following primary antibodies: rabbit PDK4 (PA5-13776); mouse 0-GlcNAc (9875), rabbit GFAT (D12F4), rabbit OGT (D1D8Q), rabbit OGA (E9C5U), rabbit GAPDH (2118S); rabbit CD36 (18836-1-AP), rabbit CPT1b (22170-1-AP), rabbit LCAD (17526-1-AP), and GCN5L1 as previously reported (Scott et al., 2012). Protein loading was confirmed using GAPDH as a loading control. Fluorescent […] or anti-rabbit secondary antibodies (red, 700 nm; green, 800 nm) were used to detect expression levels. Images were obtained using Licor Odyssey CLx System and protein densitometry was measured using the LiCor Image Studio Lite Ver. 5.2 Software.
(In western blotting, separated proteins are transferred to a membrane and probed.)

For a further data set, the system named is LCAD. As to the kind of experiment: LCAD activity assay in cardiac tissue. In kind it is in vivo, C57BL/6J mice. Particulars: isolated cardiac tissues; downregulated in HFpEF vs chow.
Text: as §1
LCAD Activity Assay/Biochemical Assays/Enzyme activity assay. […] The reaction was initiated with 60 µM acyl-CoA, and the rate of absorbance change was measured/observed at 600 nm over 45 min. […]

Data set [4] relates to hearts isolated from chow-fed mice. To be noted: cited from earlier work.
Setting [5] is: Adropin-treated HFpEF mice, listed as adropin.

Entries after “also recorded” stand apart in the source; their conditions may differ.

On to “Adropin: recombinant Adropin peptide hormone encoded by the ENHO gene; full-length (SEQ ID NO: 1) or cleaved product of amino acids 34-76 (SEQ ID NO: 2) (CHSRSADVDSLSESSPNSSPGPCPEKAPPPQKPSHEGSYLLQP)”, for which, in the data set with HFpEF mice [1] (HFpEF increase vs chow, after adropin treatment), the “increase in circulating blood glucose levels (IPGTT)” value is listed as “significantly attenuated”. Further, in the data set with HFpEF mice [1] (HFpEF+Adropin vs HFpEF, 450 nmol/kg daily i.p.), the “whole-body glucose tolerance / sensitivity” value is on record as “significantly restored; also recorded: significantly improves”. For the same substance, the “increase in normalized heart weight to tibia length” value with HFpEF mice [2] (HFpEF increase vs chow, in adropin-treated animals) is “absent”. Also, in the data set with HFpEF mice [2], the cardiac fibrosis result is reported as “prevented the development; also recorded: reduced” and the cardiomyocyte hypertrophy entry is listed as “prevented the development; also recorded: reduced”. For the same substance, in the data set with HFpEF mice [2] (listed as adropin), the cardiac fibrosis result is reported as “reversed” and the cardiomyocyte hypertrophy entry is “reversed”. For the same substance, in data set [3], the PDK4 enzyme expression result is listed as “no observed changes”; the “inhibition of cardiac protein O-GlcNAcylation by mediating expression of OGT and OGA” value is on record as “did not inhibit”. Also, in data set [3] (Adropin-treated HFpEF mice), the GFAT expression result is on record as “did not reduce”, the CD36 abundance result is “restored” and the “total cardiac protein O-GlcNAcylation” value is “restored; also recorded: decrease”. In data set [3] (setting [5]), the “total cardiac protein O-GlcNAcylation” value is given as “restored” and the CD36 abundance result is on record as “restored; also recorded: significantly attenuated”. In addition, in data set [3] (increased in HFpEF vs chow), the “PLIN5 expression (aberrant fatty acid utilization)” value is reported as “corrected”. Moreover, the “LCAD enzymatic activity (oxidation rates)” value in the data set with LCAD is “restored”. The cardiac contractility entry in data set [4] (acute adropin treatment, hearts isolated from chow-fed mice [32]) is “increase”. In addition, the “effect on cardiac contractility after exposure to a long-term HFD” value in data set [4] (ex vivo perfusion studies [33]) was “lost”.
